Measurements from patent US20250367166A1, “NEXT GENERATION DIPROVOCIMS THAT ACTIVATE THE INNATE AND ADAPTIVE IMMUNE RESPONSE” (The Scripps Research Institute, priority 2022, published 2025).
Where two headings read alike, the source gives them in different places.

How the values were obtained:
TLR1/TLR2 [1] = target: TLR1/TLR2 (Mus musculus, UniProt Q9EPQ1+Q9QUN7); test: TNF-α release from thioglycolate-elicited mouse peritoneal macrophages (ELISA); details: for Emax: 4 h, read-out: Efficacy (magnitude) of response versus diprovocim-1 (100%), mouse macrophages; for EC50: read-out: EC50 (nM) (mouse): EC50 TNF-α release from mouse macrophages
Procedure: Thioglycolate-elicited macrophages were recovered 4 days after i.p. injection of 2 mL BBL thioglycolate medium, brewer modified (4%; BD Biosciences) by peritoneal lavage with 5 mL phosphate buffered saline (PBS). […] Cells were seeded onto 96-well plates at 1×10^3 cells per well and treated with systematically varied concentrations of the candidate compounds (dissolved in DMSO, and final assay DMSO concentrations (0.5%) were kept constant in all experiments) for 4 h. Ultra-pure LPS (dissolved in H2O, Enzo Life Sciences) was assessed alongside the compounds as a positive control and DMSO treated controls. […] Mouse TNF-α in the supernatants was measured by ELISA kits according to the manufacturer's instructions (eBioscience). EC50's were calculated by Graphpad Prism. All data is mean of duplicates and SD is within ±10% of mean. Mouse cells were from wild type C57BL/6J mice.

TLR1/TLR2 [2] = target: TLR1/TLR2 (Homo sapiens, UniProt O60603+Q15399); test: TNF-α release from PMA-differentiated human THP-1 cells (ELISA); details: for Emax: THP-1, 4 h, read-out: Efficacy (magnitude) of response versus diprovocim-1 (100%), THP-1; for EC50: read-out: EC50 (nM) (THP-1): EC50 TNF-α release from human THP-1 cells;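 for all read-outs here: cells exposed to graded compound concentrations for 4 h, TNF-α quantified in supernatant, LPS as positive and DMSO as negative control, values are duplicate means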
Sequence of TLR1/TLR2 (Homo sapiens, UniProt O60603+Q15399) (Q15399 25-786): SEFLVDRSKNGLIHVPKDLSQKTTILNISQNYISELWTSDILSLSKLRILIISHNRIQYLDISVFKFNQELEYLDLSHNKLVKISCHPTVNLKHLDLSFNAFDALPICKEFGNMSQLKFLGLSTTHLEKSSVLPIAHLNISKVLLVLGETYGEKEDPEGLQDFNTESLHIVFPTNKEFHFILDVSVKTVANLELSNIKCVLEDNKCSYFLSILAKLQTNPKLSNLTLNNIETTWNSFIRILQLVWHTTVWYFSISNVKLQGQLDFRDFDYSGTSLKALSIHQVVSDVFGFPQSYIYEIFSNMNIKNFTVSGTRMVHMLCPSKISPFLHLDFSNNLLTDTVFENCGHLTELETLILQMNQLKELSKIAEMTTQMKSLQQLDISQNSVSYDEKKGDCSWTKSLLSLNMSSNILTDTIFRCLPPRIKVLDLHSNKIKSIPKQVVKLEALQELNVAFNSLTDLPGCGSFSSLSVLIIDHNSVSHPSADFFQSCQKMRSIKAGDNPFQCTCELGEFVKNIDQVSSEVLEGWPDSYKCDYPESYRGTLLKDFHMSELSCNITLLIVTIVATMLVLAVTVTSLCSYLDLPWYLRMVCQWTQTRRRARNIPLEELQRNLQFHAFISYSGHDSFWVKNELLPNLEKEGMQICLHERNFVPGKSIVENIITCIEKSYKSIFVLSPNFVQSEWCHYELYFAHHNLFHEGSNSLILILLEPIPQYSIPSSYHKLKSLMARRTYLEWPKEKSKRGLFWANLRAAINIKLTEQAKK
Sequence of TLR1/TLR2 (Homo sapiens, UniProt O60603+Q15399) (O60603 21-784): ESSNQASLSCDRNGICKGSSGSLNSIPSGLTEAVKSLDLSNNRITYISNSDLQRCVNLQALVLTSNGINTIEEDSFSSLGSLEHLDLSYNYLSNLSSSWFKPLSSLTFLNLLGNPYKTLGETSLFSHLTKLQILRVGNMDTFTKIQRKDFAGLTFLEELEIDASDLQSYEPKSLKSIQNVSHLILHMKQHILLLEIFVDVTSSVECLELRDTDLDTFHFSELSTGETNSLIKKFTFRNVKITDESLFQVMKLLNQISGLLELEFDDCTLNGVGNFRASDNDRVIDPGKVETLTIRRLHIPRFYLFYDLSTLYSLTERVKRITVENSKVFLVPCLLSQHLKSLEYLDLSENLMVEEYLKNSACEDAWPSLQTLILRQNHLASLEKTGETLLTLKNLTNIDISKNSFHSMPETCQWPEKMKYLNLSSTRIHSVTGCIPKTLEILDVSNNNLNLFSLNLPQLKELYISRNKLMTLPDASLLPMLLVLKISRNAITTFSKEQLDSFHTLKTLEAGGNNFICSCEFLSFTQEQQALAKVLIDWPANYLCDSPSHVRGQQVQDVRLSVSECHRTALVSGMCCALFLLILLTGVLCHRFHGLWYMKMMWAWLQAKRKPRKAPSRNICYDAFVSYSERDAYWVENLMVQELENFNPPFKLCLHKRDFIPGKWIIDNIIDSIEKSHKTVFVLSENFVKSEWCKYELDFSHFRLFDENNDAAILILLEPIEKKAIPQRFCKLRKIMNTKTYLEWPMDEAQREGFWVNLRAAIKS

Sequence of TLR1/TLR2 (Mus musculus, UniProt Q9EPQ1+Q9QUN7) (Q9EPQ1 26-795): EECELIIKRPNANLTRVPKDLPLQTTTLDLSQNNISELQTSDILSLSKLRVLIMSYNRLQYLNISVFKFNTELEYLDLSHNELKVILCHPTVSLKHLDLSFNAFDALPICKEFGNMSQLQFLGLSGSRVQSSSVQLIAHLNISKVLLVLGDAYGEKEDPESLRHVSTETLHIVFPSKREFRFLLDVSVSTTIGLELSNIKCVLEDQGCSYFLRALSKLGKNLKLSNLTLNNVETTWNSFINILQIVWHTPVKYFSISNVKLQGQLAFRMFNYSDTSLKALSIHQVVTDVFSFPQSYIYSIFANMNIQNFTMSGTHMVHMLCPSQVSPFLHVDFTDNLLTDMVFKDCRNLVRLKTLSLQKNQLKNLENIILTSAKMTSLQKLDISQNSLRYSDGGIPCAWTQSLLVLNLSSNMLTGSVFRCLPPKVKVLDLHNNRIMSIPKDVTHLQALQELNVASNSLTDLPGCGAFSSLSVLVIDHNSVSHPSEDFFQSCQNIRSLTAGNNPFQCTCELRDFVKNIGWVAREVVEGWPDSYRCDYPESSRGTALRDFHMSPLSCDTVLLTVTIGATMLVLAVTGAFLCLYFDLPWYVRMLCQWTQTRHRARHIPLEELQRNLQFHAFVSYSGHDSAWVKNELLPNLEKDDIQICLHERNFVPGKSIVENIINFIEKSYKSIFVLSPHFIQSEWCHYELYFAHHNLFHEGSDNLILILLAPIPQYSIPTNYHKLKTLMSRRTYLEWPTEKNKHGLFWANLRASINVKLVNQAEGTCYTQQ
Sequence of TLR1/TLR2 (Mus musculus, UniProt Q9EPQ1+Q9QUN7) (Q9QUN7 25-784): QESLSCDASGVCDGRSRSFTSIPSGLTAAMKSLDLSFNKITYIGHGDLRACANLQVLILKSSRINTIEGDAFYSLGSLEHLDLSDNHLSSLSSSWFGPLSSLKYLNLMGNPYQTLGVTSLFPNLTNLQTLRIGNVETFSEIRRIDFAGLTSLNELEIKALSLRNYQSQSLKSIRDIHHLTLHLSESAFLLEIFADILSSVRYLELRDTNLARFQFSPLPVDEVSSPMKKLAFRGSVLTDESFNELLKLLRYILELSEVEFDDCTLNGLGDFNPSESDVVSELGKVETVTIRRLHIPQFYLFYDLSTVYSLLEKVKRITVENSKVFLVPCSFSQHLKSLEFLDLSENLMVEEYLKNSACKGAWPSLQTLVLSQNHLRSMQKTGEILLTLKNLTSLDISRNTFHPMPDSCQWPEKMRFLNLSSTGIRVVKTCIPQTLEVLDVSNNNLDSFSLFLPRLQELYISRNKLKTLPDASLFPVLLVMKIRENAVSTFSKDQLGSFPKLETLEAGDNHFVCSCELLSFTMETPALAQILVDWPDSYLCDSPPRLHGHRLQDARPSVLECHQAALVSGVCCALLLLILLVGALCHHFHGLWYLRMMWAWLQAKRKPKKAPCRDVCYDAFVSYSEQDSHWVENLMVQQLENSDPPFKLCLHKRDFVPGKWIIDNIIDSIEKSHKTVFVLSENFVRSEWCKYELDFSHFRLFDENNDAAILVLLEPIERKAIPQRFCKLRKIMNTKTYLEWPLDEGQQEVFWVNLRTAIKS

| Emax (TLR1/TLR2 [1]) | EC50 (TLR1/TLR2 [1]; Table 1) | Emax (TLR1/TLR2 [2]) | EC50 (TLR1/TLR2 [2]; Table 1) | SMILES | further results |
| --- | --- | --- | --- | --- | --- |
|  | 1100 nM |  | 45 nM | COC(=O)CCCCCNC(=O)[C@@H]1CN(C(=O)c2ccc(C(=O)N3C[C@@H](C(=O)N[C@H]4C[C@@H]4c4ccccc4)[C@H](C(=O)N[C@H]4C[C@@H]4c4ccccc4)C3)cc2)C[C@H]1C(=O)N[C@H]1C[C@@H]1c1ccccc1 [Compound 6, Methyl 6-((3S,4S)-1-(4-((3S,4S)-3,4-bis(((1S,2R)-2-phenylcyclopropyl)carbamoyl)pyrrolidine-1-carbonyl)-benzoyl)-4-(((1S,2R)-2-phenylcyclopropyl)carbamoyl)-pyrrolidine-3-carboxamido)-hexanoate] |  |
| 110% |  | 90% |  | O=C(NCCCCCCCCCCCCO)[C@@H]1CN(C(=O)c2ccc(C(=O)N3C[C@@H](C(=O)N[C@H]4C[C@@H]4c4ccccc4)[C@H](C(=O)N[C@H]4C[C@@H]4c4ccccc4)C3)cc2)C[C@H]1C(=O)N[C@H]1C[C@@H]1c1ccccc1 [Compound 7, (3S,4S)-1-(4-((3S,4S)-3,4-Bis(((1S,2R)-2-phenyl-cyclopropyl)carbamoyl)pyrrolidine-1-carbonyl)-benzoyl)-N^3-(12-hydroxydodecyl)-N^4-((1S,2R)-2-phenyl-cyclo-propyl)pyrrolidine-3,4-dicarboxamide] | EC50 (TLR1/TLR2 [1]; Table 3): 1.2 nM; EC50 (TLR1/TLR2 [2]; Table 3): 0.21 nM |
| 110% |  | 90% |  | O=C(NCCCCCCCCCCO)[C@@H]1CN(C(=O)c2ccc(C(=O)N3C[C@@H](C(=O)N[C@H]4C[C@@H]4c4ccccc4)[C@H](C(=O)N[C@H]4C[C@@H]4c4ccccc4)C3)cc2)C[C@H]1C(=O)N[C@H]1C[C@@H]1c1ccccc1 [Compound 8, (3S,4S)-1-(4-((3S,4S)-3,4-Bis(((1S,2R)-2-phenyl-cyclopropyl)carbamoyl)pyrrolidine-1-carbonyl)benzoyl)-N^3-(10-hydroxydecyl)-N^4-((1S,2R)-2-phenylcyclopropyl)-pyrrolidine-3,4-dicarboxamide] |  |
|  | 93 nM |  | 4.3 nM | O=C(NCCCCCCCCO)[C@@H]1CN(C(=O)c2ccc(C(=O)N3C[C@@H](C(=O)N[C@H]4C[C@@H]4c4ccccc4)[C@H](C(=O)N[C@H]4C[C@@H]4c4ccccc4)C3)cc2)C[C@H]1C(=O)N[C@H]1C[C@@H]1c1ccccc1 [Compound 9, (3S,4S)-1-(4-((3S,4S)-3,4-Bis(((1S,2R)-2-phenyl-cyclopropyl)carbamoyl)pyrrolidine-1-carbonyl)-benzoyl)-N^3—(8-hydroxyoctyl)-N^4-((1S,2R)-2-phenyl-cyclopropyl)pyrrolidine-3,4-dicarboxamide] |  |
|  | 180 nM |  | 90 nM | O=C(NCCCCCCO)[C@@H]1CN(C(=O)c2ccc(C(=O)N3C[C@@H](C(=O)N[C@H]4C[C@@H]4c4ccccc4)[C@H](C(=O)N[C@H]4C[C@@H]4c4ccccc4)C3)cc2)C[C@H]1C(=O)N[C@H]1C[C@@H]1c1ccccc1 [Compound 10, (3S,4S)-1-(4-((3S,4S)-3,4-Bis(((1S,2R)-2-phenyl-cyclo-propyl)carbamoyl)pyrrolidine-1-carbonyl)-benzoyl)-N^3-(6-hydroxyhexyl)-N^4-((1S,2R)-2-phenyl-cyclopropyl)-pyrrolidine-3,4-dicarboxamide] |  |
| 120% | 60 nM | 110% | 0.9 nM | NC(=O)CCCCCCCCCCCNC(=O)[C@@H]1CN(C(=O)c2ccc(C(=O)N3C[C@@H](C(=O)N[C@H]4C[C@@H]4c4ccccc4)[C@H](C(=O)N[C@H]4C[C@@H]4c4ccccc4)C3)cc2)C[C@H]1C(=O)N[C@H]1C[C@@H]1c1ccccc1 [Compound 12, (3S,4S)—N^3-(12-Amino-12-oxododecyl)-1-(4-((3S,4S)-3,4-bis(((1S,2R)-2-phenylcyclopropyl)-carbamoyl)-pyrrolidine-1-carbonyl)benzoyl)-N^4-((1S,2R)-2-phenyl-cyclopropyl)pyrrolidine-3,4-dicarboxamide] |  |

More lines, now with the values behind:

| SMILES | Emax (TLR1/TLR2 [1]) | EC50 (TLR1/TLR2 [1]; Table 1) | Emax (TLR1/TLR2 [2]) | EC50 (TLR1/TLR2 [2]; Table 1) | further results |
| --- | --- | --- | --- | --- | --- |
| COC(=O)CCCCCCCCCCCNC(=O)[C@@H]1CN(C(=O)c2ccc(C(=O)N3C[C@@H](C(=O)N[C@H]4C[C@@H]4c4ccccc4)[C@H](C(=O)N[C@H]4C[C@@H]4c4ccccc4)C3)cc2)C[C@H]1C(=O)N[C@H]1C[C@@H]1c1ccccc1 [Compound 3, Methyl 12-((3S,4S)-1-(4-((3S,4S)-3,4-bis(((1S,2R)-2-phenylcyclopropyl)carbamoyl)pyrrolidine-1-carbonyl)-benzoyl)-4-(((1S,2R)-2-phenylcyclopropyl)-carbamoyl)-pyrrolidine-3-carboxamido)-dodecanoate] | 100% | 1.4 nM |  |  |  |
| COC(=O)CCCCCCCCCNC(=O)[C@@H]1CN(C(=O)c2ccc(C(=O)N3C[C@@H](C(=O)N[C@H]4C[C@@H]4c4ccccc4)[C@H](C(=O)N[C@H]4C[C@@H]4c4ccccc4)C3)cc2)C[C@H]1C(=O)N[C@H]1C[C@@H]1c1ccccc1 [Compound 4, Methyl 10-((3S,4S)-1-(4-((3S,4S)-3,4-bis(((1S,2R)-2-phenylcyclopropyl)carbamoyl)pyrrolidine-1-carbonyl)-benzoyl)-4-(((1S,2R)-2-phenylcyclopropyl)-carbamoyl)-pyrrolidine-3-carboxamido)-decanoate] |  |  | 100% |  |  |
| O=C(O)CCCCCCCCCCCNC(=O)[C@@H]1CN(C(=O)c2ccc(C(=O)N3C[C@@H](C(=O)N[C@H]4C[C@@H]4c4ccccc4)[C@H](C(=O)N[C@H]4C[C@@H]4c4ccccc4)C3)cc2)C[C@H]1C(=O)N[C@H]1C[C@@H]1c1ccccc1 [Compound 11, 12-((3S,4S)-1-(4-((3S,4S)-3,4-Bis(((1S,2R)-2-phenyl-cyclopropyl)carbamoyl)pyrrolidine-1-carbonyl)benzoyl)-4-(((1S,2R)-2-phenylcyclopropyl)carbamoyl)pyrrolidine-3-carboxamido)-dodecanoic acid] | 110% | 280 nM | 100% | 3.4 nM |  |
| CC(C)(C)OC(=O)CCOCCOCCOCCNC(=O)[C@@H]1CN(C(=O)c2ccc(C(=O)N3C[C@@H](C(=O)N[C@H]4C[C@@H]4c4ccccc4)[C@H](C(=O)N[C@H]4C[C@@H]4c4ccccc4)C3)cc2)C[C@H]1C(=O)N[C@H]1C[C@@H]1c1ccccc1 [Compound 28, tert-Butyl 1-((3S,4S)-1-(4-((3S,4S)-3,4-bis(((1S,2R)-2-phenylcyclopropyl)carbamoyl)pyrrolidine-1-carbonyl)-benzoyl)-4-(((1S,2R)-2-phenylcyclopropyl)carbamoyl)-pyrrolidin-3-yl)-1-oxo-5,8,11-trioxa-2-azatetradecan-14-oate] |  |  |  |  | EC50 (TLR1/TLR2 [2]; Table 2): 3.1 nM |
| COC(=O)CCOCCOCCOCCNC(=O)[C@@H]1CN(C(=O)c2ccc(C(=O)N3C[C@@H](C(=O)N[C@H]4C[C@@H]4c4ccccc4)[C@H](C(=O)N[C@H]4C[C@@H]4c4ccccc4)C3)cc2)C[C@H]1C(=O)N[C@H]1C[C@@H]1c1ccccc1 [Compound 29, Methyl 1-((3S,4S)-1-(4-((3S,4S)-3,4-bis(((1S,2R)-2-phenylcyclopropyl)carbamoyl)pyrrolidine-1-carbonyl)benzoyl)-4-(((1S,2R)-2-phenylcyclopropyl)carbamoyl)-pyrrolidin-3-yl)-1-oxo-5,8,11-trioxa-2-azatetradecan-14-oate] |  |  | 110% |  | EC50 (TLR1/TLR2 [2]; Table 2): 40 nM |
